In US20230002375A1, “HYDROPYRAZINO[1,2-B]ISOQUINOLINE COMPOUNDS FOR THE TREATMENT OF AUTOIMMUNE DISEASE” (Hoffmann-La Roche Inc., priority 2019, published 2023):

Each molecule was assayed against T1, human TLR9 (Homo sapiens, UniProt Q9NR96) (assay: HEK293-Blue-hTLR-9 cells assay (SEAP reporter, ODN2006 stimulation)). Settings: HEK293-Blue-hTLR9 cells, ODN2006, 20 hrs incubation; read-out: HEK/hTLR9 IC50.
T1 sequence (Q9NR96 26-1032): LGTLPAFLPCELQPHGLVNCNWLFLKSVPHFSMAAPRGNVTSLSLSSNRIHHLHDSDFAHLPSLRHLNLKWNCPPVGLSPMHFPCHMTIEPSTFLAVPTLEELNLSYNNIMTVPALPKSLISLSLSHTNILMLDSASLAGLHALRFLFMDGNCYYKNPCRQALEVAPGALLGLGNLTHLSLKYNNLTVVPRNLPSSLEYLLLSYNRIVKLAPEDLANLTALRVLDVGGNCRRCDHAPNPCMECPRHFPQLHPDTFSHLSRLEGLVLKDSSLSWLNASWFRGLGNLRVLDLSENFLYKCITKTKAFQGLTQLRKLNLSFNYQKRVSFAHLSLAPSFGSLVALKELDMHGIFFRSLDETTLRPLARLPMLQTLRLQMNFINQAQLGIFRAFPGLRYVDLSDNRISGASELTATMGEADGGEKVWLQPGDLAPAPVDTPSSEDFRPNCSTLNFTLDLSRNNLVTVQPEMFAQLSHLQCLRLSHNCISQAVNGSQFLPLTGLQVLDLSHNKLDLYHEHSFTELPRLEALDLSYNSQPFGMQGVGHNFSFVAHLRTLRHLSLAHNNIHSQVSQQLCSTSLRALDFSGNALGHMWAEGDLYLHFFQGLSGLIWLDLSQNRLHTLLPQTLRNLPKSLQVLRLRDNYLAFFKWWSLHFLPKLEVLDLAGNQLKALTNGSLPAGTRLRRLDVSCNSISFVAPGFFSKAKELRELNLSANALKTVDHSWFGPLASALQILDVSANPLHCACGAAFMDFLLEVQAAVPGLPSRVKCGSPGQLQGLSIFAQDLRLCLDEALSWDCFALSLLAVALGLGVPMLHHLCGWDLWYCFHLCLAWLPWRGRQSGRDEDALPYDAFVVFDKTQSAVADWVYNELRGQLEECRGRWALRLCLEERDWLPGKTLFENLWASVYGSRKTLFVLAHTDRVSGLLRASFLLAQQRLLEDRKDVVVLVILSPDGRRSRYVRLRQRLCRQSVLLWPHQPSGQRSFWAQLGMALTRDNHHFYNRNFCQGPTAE
Format: cell-based
Protocol: The following tests were carried out in order to determine the activity of the compounds of formula (I), (Ia) or (Ib) in HEK293-Blue-hTLR-7/8/9 cells assay.
HEK293-Blue-hTLR-9 Cells Assay:
A stable HEK293-Blue-hTLR-9 cell line was purchased from InvivoGen (Cat.#: hkb-htlr9, San Diego, Calif., USA). These cells were originally designed for studying the stimulation of human TLR9 by monitoring the activation of NF-κB. A SEAP (secreted embryonic alkaline phosphatase) reporter gene was placed under the control of the IFN-β minimal promoter fused to five NF-κB and AP-1-binding sites. The SEAP was induced by activating NF-κB and AP-1 via stimulating HEK-Blue hTLR9 cells with TLR9 ligands. Therefore the reporter expression was declined by TLR9 antagonist under the stimulation of a ligand, such as ODN2006 (Cat.#: tlrl-2006-1, Invivogen, San Diego, Calif., USA), for incubation of 20 hrs. The cell culture supernatant SEAP reporter activity was determined using QUANTI-Blue™ kit (Cat.#: rep-qb1, Invivogen, San Diego, Calif., USA) at a wavelength of 640 nm, a detection medium that turns purple or blue in the presence of alkaline phosphatase.
HEK293-Blue-hTLR9 cells were incubated at a density of 250,000-450,000 cells/mL in a volume of 170 μL in a 96-well plate in Dulbecco's Modified Eagle's medium (DMEM) containing 4.5 g/L glucose, 50 U/mL penicillin, […], 2 mM L-glutamine, 10% (v/v) heat-inactivated fetal bovine serum with addition of 20 μL test compound in a serial dilution in the presence of final DMSO at 1% and 10 μL of 20 uM ODN2006 in above DMEM, perform incubation under 37° C. in a CO2 incubator for 20 hrs. Then 20 μL of the supernatant from each well was incubated with 180 μL Quanti-blue substrate solution at 37° C. for 2 h and the absorbance was read at 620-655 nm using a spectrophotometer. The signaling pathway that TLR9 activation leads to downstream NF-κB activation has been widely accepted, and therefore similar reporter assay was modified for evaluating TLR9 antagonist.

Row | Compound | IC50 [nM]
1 | C[C@@H]1CN(c2ccc(C#N)c3ncccc23)C[C@@H]2Cc3cc(N4C[C@H]5CNCCN5C4=O)ccc3CN21 (single isomer, unassigned) [Example 17B] | 106
2 | C[C@@H]1CN(c2ccc(C#N)c3ncccc23)C[C@@H]2Cc3cc(N4CC5NCCOC5C4)ccc3CN21 (stereo in doubt) [Example 10, 5-[(4R,11aS)-9-[(4aS,7aS)-3,4,4a,5,7,7a-hexahydro-2H-pyrrolo[3,4-b][1,4]oxazin-6-yl]-4-methyl-1,3,4,6,11,11a-hexahydropyrazino[1,2-b]isoquinolin-2-yl]quinoline-8-carbonitrile] | 78.2
3 | C[C@@H]1CN(c2ccc(C#N)c3ncccc23)C[C@@H]2Cc3ccc(N4CCOCC(N)C4)cc3CN21 (stereo partly drawn) [Example 1, 5-[(4R,11aS)-8-(6-amino-1,4-oxazepan-4-yl)-4-methyl-1,3,4,6,11,11a-hexahydropyrazino[1,2-b]isoquinolin-2-yl]quinoline-8-carbonitrile] | 64.6
4 | C[C@@H]1CN(c2ccc(C#N)c3ncccc23)C[C@@H]2Cc3ccc(OCCN(C)C)cc3CN21 [Example 5, 5-[(4R,11aS)-8-[2-(dimethylamino)ethoxy]-4-methyl-1,3,4,6,11,11a-hexahydropyrazino[1,2-b]isoquinolin-2-yl]quinoline-8-carbonitrile] | 96.3
5 | C[C@@H]1CN(c2ccc(C#N)c3ncccc23)C[C@@H]2Cc3cc(N[C@@H]4CNC[C@@H]4F)ccc3CN21 [Example 6, 5-[(4R,11aS)-4-methyl-9-[[(3R,4S)-4-fluoropyrrolidin-3-yl]amino]-1,3,4,6,11,11a-hexahydropyrazino[1,2-b]isoquinolin-2-yl]quinoline-8-carbonitrile] | 106
6 | C[C@@H]1CN(c2ccc(C#N)c3ncccc23)C[C@@H]2Cc3cc(OC[C@@H]4CCN4)ccc3CN21 [Example 12, 5-[(4R,11aS)-9-[[(2S)-azetidin-2-yl]methoxy]-4-methyl-1,3,4,6,11,11a-hexahydropyrazino[1,2-b]isoquinolin-2-yl]quinoline-8-carbonitrile] | 116
7 | C[C@@H]1CN(c2ccc(C#N)c3ncccc23)C[C@@H]2Cc3cc(N4CCN(C(=O)[C@]5(C)CCCN5)CC4)ccc3CN21 [Example 14, 5-[(4R,11aS)-4-methyl-9-[4-[(2S)-2-methylpyrrolidine-2-carbonyl]piperazin-1-yl]-1,3,4,6,11,11a-hexahydropyrazino[1,2-b]isoquinolin-2-yl]quinoline-8-carbonitrile] | 254
8 | C[C@@H]1CN(c2ccc(C#N)c3ncccc23)C[C@@H]2Cc3cc(N4C[C@@H]5C[C@H]4CN5C(=O)C(C)(C)N)ccc3CN21 [Example 15, 5-[(4R,11aS)-9-[(1S,4S)-5-(2-amino-2-methyl-propanoyl)-2,5-diazabicyclo[2.2.1]heptan-2-yl]-4-methyl-1,3,4,6,11,11a-hexahydropyrazino[1,2-b]isoquinolin-2-yl]quinoline-8-carbonitrile] | 125

More lines, in order of falling IC50, values ahead:

Row | IC50 [nM] | Compound
9 | 139 | CO[C@H]1CN(c2ccc3c(c2)C[C@H]2CN(c4ccc(C#N)c5ncccc45)C[C@@H](C)N2C3)C[C@H]1N [Example 9, 5-[(4R,11aS)-9-[(3R,4S)-3-amino-4-methoxy-pyrrolidin-1-yl]-4-methyl-1,3,4,6,11,11a-hexahydropyrazino[1,2-b]isoquinolin-2-yl]quinoline-8-carbonitrile]
10 | 125 | C[C@@H]1CN(c2ccc(C#N)c3ncccc23)C[C@@H]2Cc3cc(N4CC(N)CC4=O)ccc3CN21 (stereo partly drawn) [Example 16, 5-[(4R,11aS)-9-(4-amino-2-oxo-pyrrolidin-1-yl)-4-methyl-1,3,4,6,11,11a-hexahydropyrazino[1,2-b]isoquinolin-2-yl]quinoline-8-carbonitrile]
11 | 109 | CO[C@H]1CNC[C@H]1Nc1ccc2c(c1)C[C@H]1CN(c3ccc(C#N)c4ncccc34)C[C@@H](C)N1C2 [Example 7, 5-[(4R,11aS)-9-[[(3R,4S)-4-methoxypyrrolidin-3-yl]amino]-4-methyl-1,3,4,6,11,11a-hexahydropyrazino[1,2-b]isoquinolin-2-yl]quinoline-8-carbonitrile]
12 | 107 | C[C@@H]1CN(c2ccc(C#N)c3ncccc23)C[C@@H]2Cc3cc(N4C[C@@H]5CNCCN5C4=O)ccc3CN21 (single isomer, unassigned) [Example 17A]
13 | 85.6 | C[C@@H]1CN(c2ccc(C#N)c3ncccc23)C[C@@H]2Cc3cc(N4CCN(C(=O)C(C)(C)N)CC4)ccc3CN21 [Example 13, 5-[(4R,11aS)-9-[4-(2-amino-2-methyl-propanoyl)piperazin-1-yl]-4-methyl-1,3,4,6,11,11a-hexahydropyrazino[1,2-b]isoquinolin-2-yl]quinoline-8-carbonitrile]
14 | 85.3 | C[C@@H]1CN(c2ccc(C#N)c3ncccc23)C[C@@H]2Cc3cc(N4C[C@@H](F)[C@@H](N)C4)ccc3CN21 [Example 8, 5-[(4R,11aS)-9-[(3S,4R)-3-amino-4-fluoro-pyrrolidin-1-yl]-4-methyl-1,3,4,6,11,11a-hexahydropyrazino[1,2-b]isoquinolin-2-yl]quinoline-8-carbonitrile]
15 | 81 | C[C@@H]1CN(c2ccc(C#N)c3ncccc23)C[C@@H]2Cc3cc(OCCN(C)C)ccc3CN21 [Example 11, 5-[(4R,11aS)-9-[2-(dimethylamino)ethoxy]-4-methyl-1,3,4,6,11,11a-hexahydropyrazino[1,2-b]isoquinolin-2-yl]quinoline-8-carbonitrile]
16 | 64.6 | C[C@@H]1CN(c2ccc(C#N)c3ncccc23)C[C@@H]2Cc3cc(N4CC5CCNCC5C4=O)ccc3CN21 (stereo partly drawn) [Example 18, 5-[(4R,11aS)-4-methyl-9-(3-oxo-3a,4,5,6,7,7a-hexahydro-1H-pyrrolo[3,4-c]pyridin-2-yl)-1,3,4,6,11,11a-hexahydropyrazino[1,2-b]isoquinolin-2-yl]quinoline-8-carbonitrile]
17 | 44.5 | C[C@@H]1CN(c2ccc(C#N)c3ncccc23)C[C@@H]2Cc3ccc(NCCN4CC[C@H](O)C4)cc3CN21 [Example 2, 5-[(4R,11aS)-8-[2-[(3S)-3-hydroxypyrrolidin-1-yl]ethylamino]-4-methyl-1,3,4,6,11,11a-hexahydropyrazino[1,2-b]isoquinolin-2-yl]quinoline-8-carbonitrile]
18 | 44.5 | C[C@@H]1CN(c2ccc(C#N)c3ncccc23)C[C@@H]2Cc3cc(N4CC5CNCCC5C4=O)ccc3CN21 (stereo partly drawn) [Example 19, 5-[(4R,11aS)-4-methyl-9-(1-oxo-3a,4,5,6,7,7a-hexahydro-3H-pyrrolo[3,4-c]pyridin-2-yl)-1,3,4,6,11,11a-hexahydropyrazino[1,2-b]isoquinolin-2-yl]quinoline-8-carbonitrile]
